The source made the active and inactive calls. The rule behind the calls is not given here.
Experiments:
[1] = biological target: T1, Bromodomain-containing protein 4 (Homo sapiens, UniProt O60885); assay: Displacement of tetra-acetylated histone H4 peptide (1-21) from recombinant human N-terminal His-tagged BRD4 BD1 (44 to 170 residues) expressed in Escherichia coli incubated for 30 mins followed by further incubation with tetra-acetylated histone H4 peptide (1-21) for 30 mins by Alphascreen assay
[2] = biological target: Bromodomain-containing protein 3 (Homo sapiens, UniProt Q15059); assay: Displacement of tetra-acetylated histone H4 peptide (1-21) from BRD3 BD1 (unknown origin) incubated for 30 mins followed by further incubation with tetra-acetylated histone H4 peptide (1-21) for 30 mins by Alphascreen assay
Homo sapiens = organism: Homo sapiens; assay: Selectivity index, ratio of IC50 for BRD2 BD2 (unknown origin) to IC50 for BRD2 BD1 (unknown origin) by AlphaScreen assay
[3] = biological target: T1, Bromodomain-containing protein 4; assay: Inhibition of BRD4 BD1 in human THP1 cells assessed as inhibition of MSU-induced NLRP3 inflammasome at 1 uM incubated for 1 hr followed by MSU treatment and measured after 12 hrs by Western blot analysis; assay type: cell-based
Rattus norvegicus [4] = assay: In vivo inhibition of MSU-induced NLRP3 inflammasome in synovial tissue of Sprague-Dawley rat model of acute gout arthritis at 1 mg/kg, ia administered 1 hr before MSU challenge and measured upto 24 hrs by Western blot analysis; assay type: functional, organism-based
Rattus norvegicus [5] = assay: In vivo inhibition of MSU-induced pyroptosis in Sprague-Dawley rat model of acute gout arthritis assessed as caspase+/PI+ macrophage cells in synovial tissue at 1 mg/kg, ia administered 1 hr before MSU challenge and measured upto 24 hrs by PI staining based flow cytometric analysis (reference value: 5.79 %); assay type: functional; set-up: scale not given: the % may be the effect or the level left
[6] = biological target: T1, Bromodomain-containing protein 4; assay: Inhibition of BRD4 BD1 in human THP1 cells assessed as inhibition of MSU-induced pyroptosis by measuring caspase+/PI- cells at 1 uM incubated for 1 hr followed by MSU treatment and measured after 12 hrs by PI/caspase 1 double staining based flow cytometric analysis (reference value: 4.2 %); assay type: cell-based; set-up: scale not given: the % may be the effect or the level left

Bromodomain-containing protein 3, sequence (Q15059 whole entry): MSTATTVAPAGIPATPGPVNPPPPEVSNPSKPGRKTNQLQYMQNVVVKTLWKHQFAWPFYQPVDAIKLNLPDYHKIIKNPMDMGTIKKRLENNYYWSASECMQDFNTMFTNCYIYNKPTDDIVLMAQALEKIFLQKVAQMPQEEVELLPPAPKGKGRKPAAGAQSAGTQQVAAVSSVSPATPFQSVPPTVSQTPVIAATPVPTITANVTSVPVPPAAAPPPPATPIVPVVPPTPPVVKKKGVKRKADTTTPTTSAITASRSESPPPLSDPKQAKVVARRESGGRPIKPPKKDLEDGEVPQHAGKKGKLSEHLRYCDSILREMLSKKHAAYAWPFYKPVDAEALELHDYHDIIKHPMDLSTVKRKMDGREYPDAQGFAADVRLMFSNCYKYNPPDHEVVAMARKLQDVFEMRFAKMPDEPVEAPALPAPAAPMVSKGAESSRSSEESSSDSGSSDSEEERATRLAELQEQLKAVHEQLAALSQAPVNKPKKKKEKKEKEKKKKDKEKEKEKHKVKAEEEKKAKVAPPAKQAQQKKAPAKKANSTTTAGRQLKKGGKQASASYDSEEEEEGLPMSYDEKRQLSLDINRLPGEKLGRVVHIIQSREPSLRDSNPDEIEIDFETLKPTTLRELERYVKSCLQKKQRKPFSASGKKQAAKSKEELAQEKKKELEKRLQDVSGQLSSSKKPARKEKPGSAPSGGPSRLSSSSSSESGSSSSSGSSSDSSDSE

Q: How did the IC50 [1] turn out when `COc1ccccc1S(=O)(=O)Nc1ccc2c3c(cc(-n4cnc(C)c4)nc13)C(=O)N2C` was run?
A: 87.7 nM

Q: What about the IC50 [2] of the same molecule?
A: 246 nM

Q: And the Ratio IC50 (Homo sapiens)?
A: 2.4

Q: What about the inhibition [3] of the same molecule?
A: Active

Q: And the inhibition (Rattus norvegicus [4])?
A: Active

Q: What about the Activity (Rattus norvegicus [5]) of the same molecule?
A: 1.03%

Q: What about the Activity [6] of the same molecule?
A: 4.1%
